Source: US9969775B2, “CGRP antagonist peptides” (Ferring B.V., priority 2015, dated 2018)
pIC50: −log10 of the molar value. Numbered stars: 1 amine (or outer) side, 2 acyl side, 3 side chain; on linkers, the order of the positions; unused ones are H or OH. Bridge positions count the residues as written; N and C are the ends. Square brackets hold non-standard residues; d marks the D form. Peptide text beside a SMILES is read from it. * marks the point of attachment. Phe(3-CH2NH2) = O=C([C@H](Cc1cccc(CN[*:3])c1)N[*:1])[*:2]; Phe(3-CONH2) = NC(=O)c1cccc(C[C@H](N)C(=O)O)c1; Phe(2-CONH2) = NC(=O)c1ccccc1C[C@H](N)C(=O)O; X15 = N#CN=C(N)NCCC[C@H](N[*:1])C(=O)[*:2]; Phe(4-NH2) = Nc1ccc(C[C@H](N)C(=O)O)cc1; X16 = CCN(CC)CC[C@H](N[*:1])C(=O)[*:2]; Arg(Me) = CNC(=N)NCCC[C@H](N)C(=O)O; Lys(iPr) = CC(C)NCCCC[C@H](N)C(=O)O; Picolinoyl(5-F) = O=C(c1ccc(F)cn1)*; Orn(iPr) = CC(C)NCCC[C@H](N)C(=O)O; Benzoyl(4-F) = O=C(c1ccc(F)cc1)*; Oxazole2carbonyl = O=C(c1ncco1)*; 3Pal = N[C@@H](Cc1cccnc1)C(=O)O; Picolinoyl = O=C(c1ccccn1)*; ΔPro = O=C(O)[C@@H]1C=CCN1; Orn = NCCC[C@H](N)C(=O)O; X8 = CC(C)NCCOCCOCC(=O)*; X11 = O=C(c1ncccc1Cl)*; X12 = Cc1cccnc1C(=O)*

Key:
[1] = biological target: T1, hCGRP receptor (CALCRL:RAMP1) (Homo sapiens, UniProt O60894+Q16602); assay: CGRP receptor antagonist activity measured by cAMP assay (HTRF); assay type: cell-based; settings: agonist human α-CGRP; for Emax: % MPE: percent of the maximal possible effect, read-out: hCGRP-R Efficacy Antag (%) Ave; for pIC50: GeneBLAzer CALCRL:RAMP1-CRE-bla Freestyle 293F cells, 30 minutes, read-out: hCGRP-R IC50 Ave
T1 construct: host or cells: GeneBLAzer CALCRL:RAMP1-CRE-bla Freestyle 293F

[2] = biological target: T2, hAM2 receptor (CALCRL:RAMP3) (Homo sapiens, UniProt O60896+Q16602); assay: AM2 receptor antagonist activity measured by cAMP assay (HTRF); assay type: cell-based; settings: for Emax: % MPE: percent of the maximal possible effect, read-out: hAM2-R Efficacy Antag (%) Ave; for Emax / pIC50: agonist human adrenomedullin; for pIC50: GeneBLAzer CALCRL:RAMP3-CRE-bla Freestyle 293F cells, read-out: hAM2-R IC50 Ave; for selectivity ratio CGRP/AM2: selectivity ratio for hCGRP over hAM2, calculated from the IC50 values
T2 construct: expressed in transfected cells; host or cells: GeneBLAzer CALCRL:RAMP3-CRE-bla Freestyle 293F
T2 sequence (Q16602 23-461): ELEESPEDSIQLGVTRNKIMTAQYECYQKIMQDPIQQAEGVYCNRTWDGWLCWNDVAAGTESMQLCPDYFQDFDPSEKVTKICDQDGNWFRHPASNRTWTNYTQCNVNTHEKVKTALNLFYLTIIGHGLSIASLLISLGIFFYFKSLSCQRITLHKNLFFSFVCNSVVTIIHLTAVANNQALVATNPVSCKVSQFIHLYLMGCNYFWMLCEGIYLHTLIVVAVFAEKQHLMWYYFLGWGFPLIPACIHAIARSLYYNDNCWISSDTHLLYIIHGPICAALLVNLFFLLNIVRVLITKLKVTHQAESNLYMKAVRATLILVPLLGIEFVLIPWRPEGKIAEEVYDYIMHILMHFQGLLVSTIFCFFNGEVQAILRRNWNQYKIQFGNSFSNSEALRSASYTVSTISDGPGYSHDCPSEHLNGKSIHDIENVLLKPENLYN
T2 sequence (O60896 24-148): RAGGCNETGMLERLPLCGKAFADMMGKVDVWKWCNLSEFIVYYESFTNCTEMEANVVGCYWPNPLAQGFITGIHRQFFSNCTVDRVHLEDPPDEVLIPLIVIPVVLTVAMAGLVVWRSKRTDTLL
Method: Antagonist activity for the adrenomedullin receptor AM2 was determined using the method described in Example 6 above, with the following modifications. Instead of GeneBLAzer® CALCRL:RAMP1-CRE-bla Freestyle™ 293F cells, GeneBLAzer® CALCRL:RAMP3-CRE-bla Freestyle™ 293F cells were used to test activity at hAM2 receptors. The agonist was human adrenomedullin, instead of α-CGRP.
In Table 5, the selectivity ratio for hCGRP over hAM2 is calculated as hCGRP-R IC50/hAM2-R IC50.

T1 sequence (Q16602 23-461): as the sequence (Q16602 23-461) above
T1 sequence (O60894 27-148): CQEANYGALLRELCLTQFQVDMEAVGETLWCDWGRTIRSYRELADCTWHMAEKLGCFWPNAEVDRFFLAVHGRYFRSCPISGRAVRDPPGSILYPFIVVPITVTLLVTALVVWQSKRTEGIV

| SMILES | Emax [1] | pIC50 [1] | Emax [2] | pIC50 [2] | selectivity ratio CGRP/AM2 [2] |
| --- | --- | --- | --- | --- | --- |
| CC(C)[C@@H]1NC(=O)[C@H](CC(=O)O)NC(=O)[C@H](CCCNC(=N)N)NC(=O)[C@@H](NC(=O)[C@H](Cc2ccc(O)cc2)NC(=O)[C@H](NC(=O)c2ccc(F)cc2)C(C)C)CSSC[C@@H](C(=O)N[C@@H](Cc2cccnc2)C(N)=O)NC(=O)[C@H](Cc2ccccc2)NC(=O)[C@@H]2C=CCN2C(=O)CNC1=O [Compound 4, Bz(4-F)-D-Val-Tyr-c(Cys-Arg-Asp-Val-Gly-Dhp-Phe-Cys)-3Pal-NH2] ({Benzoyl(4-F)}-[dV]YCRDVG[ΔPro]FC[3Pal]-NH2; disulfide 3-10) | 100% | 9.77 | 113% | 7.54 | 172 |
| CNC(=N)NCCC[C@@H]1NC(=O)[C@@H](NC(=O)[C@H](Cc2ccc(O)cc2)NC(=O)[C@H](NC(=O)c2ccccn2)C(C)C)CSSC[C@@H](C(=O)N[C@@H](Cc2cccnc2)C(N)=O)NC(=O)[C@H](Cc2ccccc2)NC(=O)[C@@H]2CCCN2C(=O)CNC(=O)[C@H](C(C)C)NC(=O)[C@H](CC(=O)O)NC1=O [Compound 28, Picolinoyl-D-Val-Tyr-c(Cys-Arg(Me)-Asp-Val-Gly-Pro-Phe-Cys)-3Pal-NH2] (Picolinoyl-[dV]YC[Arg(Me)]DVGPFC[3Pal]-NH2; disulfide 3-10) | 100% | – | 99% | – | – |
| CC(C)NCCC[C@@H]1NC(=O)[C@@H](NC(=O)[C@H](Cc2ccc(O)cc2)NC(=O)[C@H](NC(=O)c2ccc(F)cn2)C(C)C)CSSC[C@@H](C(=O)N[C@@H](Cc2cccnc2)C(N)=O)NC(=O)[C@H](Cc2cccc(C(N)=O)c2)NC(=O)[C@@H]2C=CCN2C(=O)CNC(=O)[C@H](C(C)C)NC(=O)[C@H](CC(=O)O)NC1=O [Compound 68, Picolinoyl(5-F)-D-Val-Tyr-c(Cys-Orn(iPr)-Asp-Val-Gly-Dhp-Phe(3-Cbm)-Cys)-3Pal-NH2] ({Picolinoyl(5-F)}-[dV]YC[Orn(iPr)]DVG[ΔPro][Phe(3-CONH2)]C[3Pal]-NH2; disulfide 3-10) | 101% | 10.22 | 100% | 7.74 | 300 |
| CCN(CC)CC[C@@H]1NC(=O)[C@@H](NC(=O)[C@H](Cc2ccc(O)cc2)NC(=O)[C@H](NC(=O)c2ccccn2)C(C)C)CSSC[C@@H](C(=O)N[C@@H](Cc2cccnc2)C(N)=O)NC(=O)[C@H](Cc2ccccc2)NC(=O)[C@@H]2CCCN2C(=O)CNC(=O)[C@H](C(C)C)NC(=O)[C@H](CC(=O)O)NC1=O [Compound 8, Picolinoyl-D-Val-Tyr-c(Cys-Dab(Et2)-Asp-Val-Gly-Pro-Phe-Cys)-3Pal-NH2] (Picolinoyl-[dV]YC[X16]DVGPFC[3Pal]-NH2; disulfide 3-10) | 100% | 10.05 | 100% | 7.52 | 347 |
| CC(C)[C@@H]1NC(=O)[C@H](CC(=O)O)NC(=O)[C@H](CCCNC(=N)N)NC(=O)[C@@H](NC(=O)[C@H](Cc2cccc(CN)c2)NC(=O)[C@H](NC(=O)c2ncco2)C(C)C)CSSC[C@@H](C(=O)N[C@@H](Cc2cccnc2)C(N)=O)NC(=O)[C@H](Cc2cccc(C(N)=O)c2)NC(=O)[C@@H]2C=CCN2C(=O)CNC1=O [Compound 23, Oxazole-2-carbonyl-D-Val-Phe(3-CH2NH2)-c(Cys-Arg-Asp-Val-Gly-Dhp-Phe(3-Cbm)-Cys)-3Pal-NH2] (Oxazole2carbonyl-[dV][Phe(3-CH2NH2)]CRDVG[ΔPro][Phe(3-CONH2)]C[3Pal]-NH2; disulfide 3-10) | 100% | 10.30 | 100% | 7.68 | 400 |
| CC(C)[C@@H]1NC(=O)[C@H](CC(=O)O)NC(=O)[C@H](CCCNC(N)=NC#N)NC(=O)[C@@H](NC(=O)[C@H](Cc2ccc(O)cc2)NC(=O)[C@H](NC(=O)c2ccccn2)C(C)C)CSSC[C@@H](C(=O)N[C@@H](Cc2cccnc2)C(N)=O)NC(=O)[C@H](Cc2ccccc2)NC(=O)[C@@H]2CCCN2C(=O)CNC1=O [Compound 26, Picolinoyl-D-Val-Tyr-c(Cys-Arg(CN)-Asp-Val-Gly-Pro-Phe-Cys)-3Pal-NH2] (Picolinoyl-[dV]YC[X15]DVGPFC[3Pal]-NH2; disulfide 3-10) | 100% | – | 100% | – | – |
| CC(C)NCCOCCOCC(=O)NCCC[C@@H]1NC(=O)[C@@H](NC(=O)[C@H](Cc2ccc(O)cc2)NC(=O)[C@H](NC(=O)c2ccc(F)cn2)C(C)C)CSSC[C@@H](C(=O)N[C@@H](Cc2cccnc2)C(N)=O)NC(=O)[C@H](Cc2ccccc2)NC(=O)[C@@H]2CCCN2C(=O)CNC(=O)[C@H](C(C)C)NC(=O)[C@H](CC(=O)O)NC1=O [Compound 13, Picolinoyl(5-F)-D-Val-Tyr-c(Cys-Orn(CO—CH2—(O—(CH2)2)2—NH-iPr)-Asp-Val-Gly-Pro-Phe-Cys)-3Pal-NH2] ({Picolinoyl(5-F)}-[dV]YC[Orn](X8)DVGPFC[3Pal]-NH2; disulfide 3-10) | 100% | 10.00 | 100% | 7.59 | 249 |

More lines, now with the values ahead:

| Emax [1] | pIC50 [1] | Emax [2] | pIC50 [2] | selectivity ratio CGRP/AM2 [2] | SMILES |
| --- | --- | --- | --- | --- | --- |
| 100% | 9.85 | 100% | 7.89 | 92 | CC(C)[C@@H]1NC(=O)[C@H](CC(=O)O)NC(=O)[C@H](CCCNC(=N)N)NC(=O)[C@@H](NC(=O)[C@H](Cc2ccc(O)cc2)NC(=O)[C@H](NC(=O)c2ncccc2Cl)C(C)C)CSSC[C@@H](C(=O)N[C@@H](Cc2cccnc2)C(N)=O)NC(=O)[C@H](Cc2ccccc2)NC(=O)[C@@H]2CCCN2C(=O)CNC1=O [Compound 51] (X11-[dV]YCRDVGPFC[3Pal]-NH2; disulfide 3-10) |
| 100% | 10.22 | 101% | 7.06 | 1478 | CC(C)NCCC[C@@H]1NC(=O)[C@@H](NC(=O)[C@H](Cc2ccccc2C(N)=O)NC(=O)[C@H](NC(=O)c2ccc(F)cn2)C(C)C)CSSC[C@@H](C(=O)N[C@@H](Cc2cccnc2)C(N)=O)NC(=O)[C@H](Cc2cccnc2)NC(=O)[C@@H]2C=CCN2C(=O)CNC(=O)[C@H](C(C)C)NC(=O)[C@H](CC(=O)O)NC1=O [Compound 38, Picolinoyl(5-F)-D-Val-Phe(2-Cbm)-c(Cys-Orn(iPr)-Asp-Val-Gly-Dhp-3Pal-Cys)-3Pal-NH2] ({Picolinoyl(5-F)}-[dV][Phe(2-CONH2)]C[Orn(iPr)]DVG[ΔPro][3Pal]C[3Pal]-NH2; disulfide 3-10) |
| 100% | 9.96 | 100% | 7.74 | 172 | CC(C)[C@@H]1NC(=O)[C@H](CC(=O)O)NC(=O)[C@H](CCCN)NC(=O)[C@@H](NC(=O)[C@H](Cc2ccc(O)cc2)NC(=O)[C@H](NC(=O)c2ccc(F)cn2)C(C)C)CSSC[C@@H](C(=O)N[C@@H](Cc2cccnc2)C(N)=O)NC(=O)[C@H](Cc2ccccc2)NC(=O)[C@@H]2CCCN2C(=O)CNC1=O [Compound 12, Picolinoyl(5-F)-D-Val-Tyr-c(Cys-Orn-Asp-Val-Gly-Pro-Phe-Cys)-3Pal-NH2] ({Picolinoyl(5-F)}-[dV]YC[Orn]DVGPFC[3Pal]-NH2; disulfide 3-10) |
| 100% | 9.89 | 97% | 5.99 | 8075 | CC(C)NCCCC[C@@H]1NC(=O)[C@@H](NC(=O)[C@H](Cc2ccccc2C(N)=O)NC(=O)[C@H](NC(=O)c2ncco2)C(C)C)CSSC[C@@H](C(=O)N[C@@H](Cc2cccnc2)C(N)=O)NC(=O)[C@H](Cc2cccnc2)NC(=O)[C@@H]2CCCN2C(=O)CNC(=O)[C@H](C(C)C)NC(=O)[C@H](CC(=O)O)NC1=O [Compound 41, Oxazole-2-carbonyl-D-Val-Phe(2-Cbm)-c(Cys-Lys(iPr)-Asp-Val-Gly-Pro-3Pal-Cys)-3Pal-NH2] (Oxazole2carbonyl-[dV][Phe(2-CONH2)]C[Lys(iPr)]DVGP[3Pal]C[3Pal]-NH2; disulfide 3-10) |
| 100% | 9.85 | 100% | 8.10 | 58 | Cc1cccnc1C(=O)N[C@@H](C(=O)N[C@@H](Cc1ccc(O)cc1)C(=O)N[C@H]1CSSC[C@@H](C(=O)N[C@@H](Cc2cccnc2)C(N)=O)NC(=O)[C@H](Cc2ccccc2)NC(=O)[C@@H]2CCCN2C(=O)CNC(=O)[C@H](C(C)C)NC(=O)[C@H](CC(=O)O)NC(=O)[C@H](CCCNC(=N)N)NC1=O)C(C)C [Compound 34] (X12-[dV]YCRDVGPFC[3Pal]-NH2; disulfide 3-10) |
| 100% | 9.77 | 99% | 6.33 | 2770 | CC(C)NCCC[C@@H]1NC(=O)[C@@H](NC(=O)[C@H](Cc2ccccc2C(N)=O)NC(=O)[C@H](NC(=O)c2ncco2)C(C)C)CSSC[C@@H](C(=O)N[C@@H](Cc2cccnc2)C(N)=O)NC(=O)[C@H](Cc2ccc(N)cc2)NC(=O)[C@@H]2C=CCN2C(=O)CNC(=O)[C@H](C(C)C)NC(=O)[C@H](CC(=O)O)NC1=O [Compound 59, Oxazole-2-carbonyl-D-Val-Phe(2-Cbm)-c(Cys-Orn(iPr)-Asp-Val-Gly-Dhp-4Aph-Cys)-3Pal-NH2] (Oxazole2carbonyl-[dV][Phe(2-CONH2)]C[Orn(iPr)]DVG[ΔPro][Phe(4-NH2)]C[3Pal]-NH2; disulfide 3-10) |
